pIC50: −log10 of the molar value.
How the values were obtained:
[1] = tested on: RAW264.7 phosphorylated c-Jun (Ser63); assay: RAW264.7 phosphorylated c-Jun whole cell assay; assay type: cell-based; conditions: Mus musculus; cytological assay, activity level; lipopolysaccharide-activated RAW264.7 cells, phospho-c-Jun (Ser63) ELISA
Description: RAW264.7 (ATCC TIB-71) cells were purchased from BeNa Culture Collection and maintained in a high-glucose DMEM medium (Gibco) containing 10% fetal bovine serum (Gibco) and 1% penicillin-streptomycin (Gibco). All cells were cultured at 37° C. in 95% air and 5% CO2. All cells were seeded into 120 μL of cell culture medium in a 96-well plate at a density of 2×10^5 cells per well. The stock solution of compound (15 mM) was serially diluted in DMSO (Sigma) and further diluted in growth medium, and it was then added at 15 μL per well as a 10× concentrated solution, well mixed with the cells and incubated with the cells for 30 min. Concentration of the compound vehicle (DMSO) in each well was 0.2%. After incubation for 30 min, the cells were activated with […] lipopolysaccharide (Sigma). Lipopolysaccharide was added to the growth medium as a 10× concentrated solution at 15 μL per well. The cell plate was incubated for 1 h, and then all the medium was removed. The level of C-Jun protein with phosphorylation of serine at site 63 was measured using the whole cell lysate kit-phosphorylated C-Jun assay (PathScan® Phospho-c-Jun (Ser63) Sandwich ELISA Kit) (CST, 7145C) according to the manufacturer's instructions.

JNK1 kinase = target: T1, JNK1 kinase (Homo sapiens, UniProt P45983); assay: JNK1 activity screening (time-resolved fluorometric HTRF kinase assay); assay type: biochemical; conditions: enzymatic assay, activity level
T1 construct: purchased Carna Biosciences 04-163
T1 sequence (P45983 whole entry): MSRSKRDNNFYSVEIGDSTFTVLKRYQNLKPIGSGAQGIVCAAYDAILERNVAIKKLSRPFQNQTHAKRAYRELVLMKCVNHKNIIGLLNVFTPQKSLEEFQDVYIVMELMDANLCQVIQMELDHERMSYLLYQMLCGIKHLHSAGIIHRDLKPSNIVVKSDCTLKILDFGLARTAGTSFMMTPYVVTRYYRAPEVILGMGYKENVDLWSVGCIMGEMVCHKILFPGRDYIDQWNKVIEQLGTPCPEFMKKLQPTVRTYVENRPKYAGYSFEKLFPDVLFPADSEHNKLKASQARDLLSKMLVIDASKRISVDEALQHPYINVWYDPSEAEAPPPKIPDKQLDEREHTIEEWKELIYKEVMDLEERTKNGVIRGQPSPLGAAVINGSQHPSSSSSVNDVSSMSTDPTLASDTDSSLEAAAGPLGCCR
Description: JNK1 activity screening. JNK1 activity was detected using a 96-well (Cisbio, 66PL96025) time-resolved fluorometric assay. The JNK1 assay was conducted in the following assay buffer: 10 mM MgCl2 (Sigma, M1028), 1 mM MnCl2 (Sigma, M1787), 1 mM DTT (Sigma, D0632) and 1× Enzymatic buffer/kinase (Cisbio, 62EZBFDC). By using the assay buffer, 3 μL of 0.1 ng/μL JNK1 kinase (Carna Biosciences, 04-163) was added to a 96-well microplate, and then 4 μL of a compound diluted appropriately (with a DMSO content of 2.5%) was added. The resulting mixture was incubated at room temperature for 0.5 h. To start the reaction, the assay buffer was used to mix 0.003 μM ATP (Aladdin, A7699) and 30 μM substrate ATF2-GST fusion (Cisbio, 64CUS000AFPEB), and 3 μL of the mixed solution was added to the microplate. The resulting mixture was incubated at room temperature for 2.5 h. HTRF detection buffer ([…], 62SDBRDD) was used then to prepare a mixture of 5 μg/mL MAb Anti GST-XL665 (Cisbio, 61GSTXLA) and 0.045 μg/mL PAb Anti-phospho ATF2-K (Cisbio, 61P12KAZ), and 10 μL of the mixture was added to the plate to terminate the reaction. After incubation for about 12 h, the plate was read on a Perkin-Elmer Envision reader.

Structure (SMILES)	pIC50 [1]	pIC50 (JNK1 kinase)
C[C@@H]1CC[C@@H](Nc2nc(NC(C)(C)C)ncc2C(=O)N2CC2)C[C@H]1O [Compound T027, Aziridin-1-yl(2-(tert-butylamino)-4-(((1R, 3R,4R)-3-hydroxy-4-methylcyclohexyl)amino)pyrimidin-5-yl)methanone]	< 6.00	6.00 to 6.30
C[C@@H]1CC[C@@H](Nc2nc(NC(C)(C)C)ncc2C(F)F)C[C@H]1O [Compound T028, (1R,2R,5R)-5-((2-(tert-butylamino)-5-(difluoromethyl)pyrimidin-4-yl)amino)-2-methylcyclohex-1-ol]	< 6.00	< 6.00
COc1cnc(NC(C)(C)C)nc1N[C@@H]1CC[C@@H](C)[C@H](O)C1 [Compound T029, (1R,2R,5R)-5-((2-(tert-butylamino)-5-methoxypyrimidin-4-yl)amino)-2-methylcyclohex-1-ol]	< 6.00	< 6.00
C[C@@H]1CC[C@@H](Nc2nc(NC(C)(C)C)ncc2CF)C[C@H]1O [Compound T030, (1R,2R,5R)-5-((2-(tert-butylamino)-5-(fluoromethyl)pyrimidin-4-yl)amino)-2-methylcyclohex-1-ol]	< 6.00	< 6.00
C[C@@H]1CC[C@@H](Nc2nc(NC(C)(C)C)ncc2S(N)(=O)=O)C[C@H]1O [Compound T031, 2-(tert-butylamino)-4-(((1R,3R,4R)-3-hydroxy-4-methylcyclohexyl)amino) pyrimidine-5-sulfamide]	< 6.00	< 6.00
C[C@@H]1CC[C@@H](Nc2nc(NC(C)(C)C)ncc2O)C[C@H]1O [Compound T032, 2-(tert-butylamino)-4-(((1R,3R,4R)-3-hydroxy-4-methylcyclohexyl)amino) pyrimidine-5-ol]	< 6.00	< 6.00
C[C@@H]1CC[C@@H](Nc2nc(NC(C)(C)C)ncc2Br)C[C@H]1O [Compound T033, (1R,2R,5R)-5-((5-bromo-2-(tert-butylamino)pyrimidin-4-yl)amino)-2-methylcyclohexan-1-ol]	6.00 to 6.30	> 7.00
C[C@@H]1CC[C@@H](Nc2nc(NC(C)(C)C)ncc2-n2ccnc2)C[C@H]1O [Compound T034, (1R,2R,5R)-5-((2-(ter-butylamino)-5-(1H-imidazol-1-yl)pyrimidin-4-yl)amino)-2-methylcyclohex-1-ol]	< 6.00	< 6.00
C[C@@H]1CC[C@@H](Nc2nc(NC(C)(C)C)ncc2-n2cncn2)C[C@H]1O [Compound T035, (1R,2R,5R)-5-((2-(tert-butylamino)-5-(1H-1,2,4-triazol-1-yl)pyrimidin-4-yl)amino)-2-methylcyclohexan-1-ol]	6.00 to 6.30	6.30 to 7.00
C[C@@H]1CC[C@@H](Nc2nc(NC(C)(C)C)ncc2-n2ccnn2)C[C@H]1O [Compound T036, (1R,2R,5R)-5-((2-(tert-butylamino)-5-(1H-1,2,3-triazol-1-yl)pyrimidin-4-yl)amino)-2-methylcyclohexan-1-ol]	6.00 to 6.30	6.30 to 7.00
CS(=O)(=O)CCn1ccc(Nc2ccnc(N[C@H]3CC[C@H](O)CC3)n2)n1 [Compound T037, (1R,4R)-4-((4-((1-(2-(methylsulfonyl)ethyl)-1H-pyrazol-3-yl)amino)pyrimidin-2-yl)amino)cyclohexan-1-ol]	< 6.00	< 6.00
CS(=O)(=O)CCn1nccc1Nc1ccnc(N[C@H]2CC[C@H](O)CC2)n1 [Compound T038, (1R,4R)-4-((4-((1-(2-(methylsulfonyl)ethyl)-1H-pyrazol-5-yl)amino)pyrimidin-2-yl)amino)cyclohexan-1-ol]	< 6.00	< 6.00
C[C@@H]1CC[C@@H](Nc2nc(O[C@H]3CC[C@H](O)CC3)ncc2C(N)=O)C[C@H]1O [Compound T039, 4-(((1R,3R,4R)-3-hydroxy-4-methylcyclohexyl)amino)-2-(((1R, 4R)-4-hydroxycyclohexyl)oxy) pyrimidine-5-carboxamide]	< 6.00	6.30 to 7.00
COc1ccc(Oc2ncc(C(N)=O)c(N[C@@H]3CC[C@@H](C)[C@H](O)C3)n2)cc1 [Compound T040, 4-(((1R,3R,4R)-3-hydroxy-4-methylcyclohexyl)amino)-2-(4-methoxyphenoxy)pyrimidine-5-carboxamide]	6.00 to 6.30	6.30 to 7.00
C[C@@H]1CC[C@@H](Nc2nc(OC3CC3)ncc2C(N)=O)C[C@H]1O [Compound T042, 2-cyclopropoxy-4-(((1R,3R,4R)-3-hydroxy-4-methylcyclohexyl)amino) pyrimidine-5-carboxamide]	< 6.00	6.00 to 6.30
C[C@@H]1CC[C@@H](Nc2nc(OC(C)(C)C)ncc2C(N)=O)C[C@H]1O [Compound T043, 2-(tert-butoxy)-4-(((1R,3R,4R)-3-hydroxy-4-methylcyclohexyl)amino) pyrimidine-5-carboxamide]	< 6.00	6.00 to 6.30
C[C@@H]1CC[C@@H](Nc2cc(NC(C)(C)C)ncc2C#N)C[C@H]1O [Compound T044, 6-(tert-butylamino)-4-(((1R,3R,4R)-3-hydroxy-4-methylcyclohexyl)amino) nicotinonitrile]	< 6.00	< 6.00
C[C@@H]1CC[C@@H](Nc2cc(NC(C)(C)C)ncc2C(N)=O)C[C@H]1O [Compound T045, 6-(tert-butylamino)-4-(((1R,3R,4R)-3-hydroxy-4-methylcyclohexyl)amino) nicotinamide]	< 6.00	< 6.00
C[C@@H]1CC[C@@H](Nc2cc(NCCO)ncc2C(N)=O)C[C@H]1O [Compound T046, 4-(((1R,3R,4R)-3-hydroxy-4-methylcyclohexyl)amino)-6-((2-hydroxyethyl)amino)nicotinamide]	< 6.00	6.00 to 6.30
CC(C)Nc1cc(N[C@@H]2CC[C@@H](C)[C@H](O)C2)c(C(N)=O)cn1 [Compound T047, 4-(((1R,3R,4R)-3-hydroxy-4-methylcyclohexyl)amino)-6-(isopropylamino)nicotinamide]	< 6.00	6.00 to 6.30
C[C@@H]1CC[C@@H](Nc2cc(NC3CCC(O)C3)ncc2C(N)=O)C[C@H]1O (stereo partly drawn) [Compound T048, 4-(((1R,3R,4R)-3-hydroxy-4-methylcyclohexyl)amino)-6-((3-hydroxycyclopentyl)amino) nicotinamide]	< 6.00	6.00 to 6.30
C[C@@H]1CC[C@@H](Nc2cc(NC3CCC3)ncc2C(N)=O)C[C@H]1O [Compound T049, 6-(cyclobutylamino)-4-(((1R,3R,4R)-3-hydroxy-4-methylcyclohexyl)amino) nicotinamide]	< 6.00	6.00 to 6.30
C[C@@H]1CC[C@@H](Nc2cc(NC3CCC3O)ncc2C(N)=O)C[C@H]1O (stereo partly drawn) [Compound T050, 4-(((1R,3R,4R)-3-hydroxy-4-methylcyclohexyl)amino)-6-((2-hydroxycyclobutyl)amino)nicotinamide]	< 6.00	6.00 to 6.30
C[C@@H]1CC[C@@H](Nc2cc(NC3CC(O)C3)ncc2C(N)=O)C[C@H]1O (stereo partly drawn) [Compound T051, 4-(((1R,3R,4R)-3-hydroxy-4-methylcyclohexyl)amino)-6-((3-hydroxycyclobutyl)amino)nicotinamide]	< 6.00	6.00 to 6.30
C[C@@H]1CC[C@@H](Nc2cc(NC3CCC(O)CC3)ncc2C(N)=O)C[C@H]1O (stereo partly drawn) [Compound T052, 4-(((1R,3R,4R)-3-hydroxy-4-methylcyclohexyl)amino)-6-((4-hydroxycyclohexyl)amino) nicotinamide]	< 6.00	6.00 to 6.30
C[C@@H]1CC[C@@H](Nc2cc(NC3CCCC(O)C3)ncc2C(N)=O)C[C@H]1O (stereo partly drawn) [Compound T053, 4-(((1R,3R,4R)-3-hydroxy-4-methylcyclohexyl)amino)-6-((3-hydroxycyclohexyl)amino) nicotinamide]	< 6.00	< 6.00
C[C@@H]1CC[C@@H](Nc2cc(NC3CCCCC3)ncc2C(N)=O)C[C@H]1O [Compound T054, 6-(cyclohexylamino)-4-(((1R,3R,4R)-3-hydroxy-4-methylcyclohexyl)amino) nicotinamide]	< 6.00	< 6.00
C[C@@H]1CC[C@@H](Nc2cc(NC3CCCC3O)ncc2C(N)=O)C[C@H]1O (stereo partly drawn) [Compound T055, 4-(((1R,3R,4R)-3-hydroxy-4-methylcyclohexyl)amino)-6-((2-hydroxycyclopentyl)amino)nicotinamide]	< 6.00	< 6.00
